The values that follow come from patent US20210077668A1, “Highly Adherent Polymers for Orthopedic Device Coatings” (Clemson University Research Foundation, priority 2018, published 2021).

Assay type in all cases: cell-based
The subject of experiment [1] is S. aureus. The experiment can be described thus: Maximum concentration of bacteria inactivated in the presence of 1 cm pieces of K-wires. How it is done:
Control K-wires were coated with monolaurin (ML), a natural antimicrobial agent active against S. aureus. Sample K-wires were coated with a copolymer formed from 20 mole percent glycidyl methacrylate, 60 mole percent ethylene glycol methacrylate and 20 mole percent ethylene glycol methacrylate available as OEGMA 950 from Sigma Aldrich. Some of the K-wires were pulled through Septa™, to simulate surgical insertion, and the antimicrobial activity was measured. Each example was replicated nine times.

In experiment [2] the test system is Methicillin-Resistant Staphylococcus Aureus (MRSA). The experiment can be described thus: Bacteria count versus time with coated K-wires (FIG. 2).
Experiment [3] deals with S. aureus biofilms. The experiment in a line: Effectiveness against biofilms, K-wires incubated in S. aureus for 48 hours (FIG. 4). Conditions: S. aureus 48 hours. As for the experimental part: Effectiveness of the inventive examples against biofilms was determined. Samples were prepared including a control K-wire (Control), a K-wire coated with ML only but not passed through a Septa™ (ML Coated), a sample treated with ML and passed through a Septa™ (ML Coated Septa), and inventive examples comprising ML with polymer, using OEGMA as the hydrophilic moiety (ML/POEGMA). Some of the inventive samples were passed through a Septa™ (ML/POEGMA Septa). The samples were all incubated in S. aureus for 48 hours. The results are provided graphically in FIG. 4.

Experiment [4] concerns S. aureus biofilms. The experiment in a line: S. aureus biofilm formation on 1 cm K-wire pieces, 48 hours (Example 3). As for the experimental part:
The performance of Copolymer A was compared to poly(lactide-co-glycolide) PLGA) with monolaurin as a model antimicrobial additive. S. aureus biofilms were grown by statically incubating a S. Aureus suspension with 1 cm K-wire pieces for 48 hours.

The subject of experiment [5] is S. aureus. The experiment can be described thus: Bacteria count versus time with coated K-wires (FIG. 1). As for the experimental part: Additional tests were done wherein bacterial count was monitored versus time for different bacteria. In FIG. 1 the bacteria count was measured for S. aureus versus time. The K-wire alone as a control was ineffective as expected.

Consider `CCCCCCCCCCCC(=O)OCC(O)CO` (centres unmarked) [ML, monolaurin], for which the “Maximum concentration of bacteria inactivated in the presence of 1 cm pieced of K-wires” value with S. aureus [1] (No Polymer after Septa, ML 1 mg/ml) is on record as 0; in the experiment on S. aureus [1] (No Polymer after Septa, ML 3 mg/ml), 0; in the experiment on S. aureus [1] (No Polymer after Septa, ML 5 mg/ml), 0; in the experiment on S. aureus [1] (No Polymer after Septa, ML 10 mg/ml) it was 0; in the experiment with S. aureus [1] (No Polymer, no Septa, ML 1 mg/ml) it was ~6 × 10^6; with S. aureus [1] (No Polymer, no Septa, ML 3 mg/ml) it was ~7 × 10^6. In addition, the “Maximum concentration of bacteria inactivated in the presence of 1 cm pieced of K-wires” value was ~6 × 10^6 in the experiment with S. aureus [1] (No Polymer, no Septa, ML 5 mg/ml) and ~8 × 10^6 in the experiment with S. aureus [1] (No Polymer, no Septa, ML 10 mg/ml). Besides, the “bacteria count versus time (course)” value was “results similar to those observed for S. aureus” in experiment [2] and “immediate decrease in bacteria due to essentially immediate release of ML, however, the activity was not sustained” in the experiment on S. aureus [5]. Moreover, the effectiveness against biofilms result in the experiment with S. aureus biofilms [3] (not passed through a Septa) is listed as “effective resistance”; with S. aureus biofilms [3] (passed through a Septa), “removed or otherwise rendered ineffective”. For the same compound, the “antimicrobial activity against biofilm formation” value with S. aureus biofilms [4] (after pulling the wires through silicon rubber Septa caps) is “lost the antimicrobial activity”. In addition, the “prevention of biofilm formation” value with S. aureus biofilms [4] (before pulling through Septa, S. aureus 48 hours) is recorded as “efficient in preventing biofilm formation”.
